From patent publication US20250034216A1, “STEREOSELECTIVE COVALENT LIGANDS FOR ONCOGENIC AND IMMUNOLOGICAL PROTEINS” (The Scripps Research Institute, priority 2021, published 2025)

Molecular target: T1, ATP9A_C31 (Homo sapiens, UniProt O75110)
T1 construct: endogenous in cells; host or cells: 22Rv1
T1 sequence (O75110 1-1047): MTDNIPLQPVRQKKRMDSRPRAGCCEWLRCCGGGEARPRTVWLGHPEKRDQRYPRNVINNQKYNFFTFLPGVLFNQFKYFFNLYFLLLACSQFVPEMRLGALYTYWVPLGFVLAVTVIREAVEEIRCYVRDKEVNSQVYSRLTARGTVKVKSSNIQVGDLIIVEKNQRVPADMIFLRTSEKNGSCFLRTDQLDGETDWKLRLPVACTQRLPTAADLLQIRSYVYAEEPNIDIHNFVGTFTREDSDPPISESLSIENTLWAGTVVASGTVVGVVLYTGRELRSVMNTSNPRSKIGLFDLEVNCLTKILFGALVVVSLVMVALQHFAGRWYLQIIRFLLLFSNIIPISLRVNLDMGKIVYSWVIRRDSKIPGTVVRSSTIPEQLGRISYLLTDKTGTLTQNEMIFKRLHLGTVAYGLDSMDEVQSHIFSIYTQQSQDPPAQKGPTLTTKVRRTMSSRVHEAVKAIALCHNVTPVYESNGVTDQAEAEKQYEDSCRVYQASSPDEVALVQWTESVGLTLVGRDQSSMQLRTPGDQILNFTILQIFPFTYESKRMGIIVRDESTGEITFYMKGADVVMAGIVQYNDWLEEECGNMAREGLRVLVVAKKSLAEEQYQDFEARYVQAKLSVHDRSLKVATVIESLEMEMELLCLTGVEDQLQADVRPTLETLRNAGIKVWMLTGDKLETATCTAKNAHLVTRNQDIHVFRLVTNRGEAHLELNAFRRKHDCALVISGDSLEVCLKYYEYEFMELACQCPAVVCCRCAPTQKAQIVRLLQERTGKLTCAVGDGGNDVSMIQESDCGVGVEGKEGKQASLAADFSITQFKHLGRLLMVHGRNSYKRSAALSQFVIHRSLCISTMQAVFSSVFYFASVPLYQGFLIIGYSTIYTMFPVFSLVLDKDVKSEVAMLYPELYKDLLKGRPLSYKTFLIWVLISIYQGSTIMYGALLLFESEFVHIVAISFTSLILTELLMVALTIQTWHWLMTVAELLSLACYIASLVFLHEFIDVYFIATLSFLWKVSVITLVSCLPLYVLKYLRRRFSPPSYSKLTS
Test: IA-DTB cysteine engagement
Type: binding
Settings: 22Rv1 cells, 20 μM probe, 1 h, relative to DMSO
Summary of the method: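 Read-out is TMT-based cysteine engagement, expressed as each reporter ion intensity divided by the average of the DMSO channels. Before that, probe-treated cell lysates were capped with IA-DTB, digested, enriched on streptavidin and TMT-tagged. PSMs with DMSO summed intensity <10,000 or DMSO CV >0.5 were excluded.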

## C=CC(=O)N1C[C@H](c2ccc(Br)cc2)[C@@H]1C(=O)Nc1cccc2cccnc12 [MY-1B, (2R,3S)-1-acryloyl-3-(4-bromophenyl)-N-(quinolin-8-yl)azetidine-2-carboxamide]
  % engagement ATP9A_C31: 79.5%

## C=CC(=O)N1C[C@H](c2ccc(Br)cc2)[C@H]1C(=O)Nc1cccc2cccnc12 [MY-3B, (2S,3S)-1-acryloyl-3-(4-bromophenyl)-N-(quinolin-8-yl)azetidine-2-carboxamide]
  % engagement ATP9A_C31: 86.5%

## C=CC(=O)N1C[C@H](c2ccc(Br)cc2)[C@H]1C(=O)Nc1cccc2cccnc12 [MY-3A, (2S,3S)-1-acryloyl-3-(4-bromophenyl)-N-(quinolin-8-yl)azetidine-2-carboxamide]
  % engagement ATP9A_C31: 73%

## C=CC(=O)N1C[C@@H](c2ccc(Br)cc2)[C@H]1C(=O)Nc1cccc2cccnc12 [MY-1A, (2S,3R)-1-acryloyl-3-(4-bromophenyl)-N-(quinolin-8-yl)azetidine-2-carboxamide]
  % engagement ATP9A_C31: 84.5%
